# Assay results reported in patent publication US10632179B2, “Methods and compositions for treating cancer” (Case Western Reserve University, priority 2013, dated 2020).
# System: heterotopic GBM flank tumor model
# Experiment: Heterotopic xenograft flank tumor treatment with peptide
# Assay type: in vivo, nude mice
# Set-up: dose or concentration left out as unconfirmed
# Details: flank tumors of mice intravenously administered peptide; compared with scrambled control polypeptide; FIG. 2
# Procedure: In this Example, we tested the efficacy of the SBK2 peptide in treating primary human brain tumor xenografts. The studies were performed using an imaging dose of the SBK2 peptide probe in 3 sequential injections that were two days apart in a heterotopic GBM flank tumor model.
# Human Gli36Δ5 glioblastoma cells constitutively over-express the vIII mutant forms of the EGFR gene (Tyminski E, Leroy S, Terada K, Finkelstein D M, Hyatt J L, Danks M K, Potter P M, Saeki Y, Chiocca E A (2005) Brain tumor oncolysis with replication-conditional herpes simplex virus type 1 expressing the prodrug-activating genes, CYP2B1 and secreted human intestinal carboxylesterase, in combination with cyclophosphamide and irinotecan. Cancer Res 65:6850-6857). Human LN-229 glioblastoma cells were obtained from American Type Culture Collection, Manassas, Va. Gli36Δ5 or LN-229 cells were harvested for flank implantation by trypsinization. […]
# On each peptide treatment day, flank tumors were imaged using the Maestro FLEX In Vivo Imaging System. […] Tumors were measured through the skin using calipers; length, width and height of the tumors were recorded on each treatment day. On the day the animals were sacrificed, tumors were measured before removal (through the skin) and after removal.
sequence,measurement,value
GEGDDFNWEQVNTLTKPTSD [SBK2],reduction in tumor volume,50%
same,reduction in weight (flank tumor),35%
